# Test results taken from US8946280B2, “Plant growth regulating compounds” (Syngenta Participations AG, priority 2010, dated 2015).
# Tested on: Orobanche cumana Wallr. seeds (race F; seed lots IN146 and IN153)
# Test: Germination of preconditioned Orobanche cumana seeds on glass fiber filter paper in petri dishes
# Assay type: in vivo
# Conditions: mean, N = 5 × 100 seeds, re-transformed data
# Method: The effect of compounds of formula (I) on germination of Orobanche cumana Wallr. seeds was evaluated on glass fiber filter paper (GFFP) in petri dishes. Seeds were preconditioned at moisture and suitable temperature to become responsive to the specific chemical germination stimulants.
# Test compounds were dissolved in DMSO (10 000 mg 1^−1) and stored at room temperature in a desiccators with desiccants. The stock solutions were dissolved with deionised water to the appropriate final test concentration.
# Seeds of O. cumana race ‘F’ were collected from sunflower fields in Manzanilla (Seville, Spain) in 2006 (seed lot IN146) and 2008 (seed lot IN153) and stored at room temperature. To separate seeds from heavy organic debris, a modified sucrose floatation technique as described by Hartman & Tanimonure (Plant Disease (1991), 75, p. 494) was applied. Seeds were filled into a separation funnel and stirred in water. When seeds floated to the surface, the water fraction containing heavy debris was discarded. Seeds were re-suspended in 2.5M sucrose solution (specific gravity of 1.20) and heavy debris was allowed to settle down for 60 min. After removing debris, seeds were disinfected in 1% sodium hypochlorite solution and 0.025% (v/v) Tween 20 for 2 min. The seeds were decanted onto two layers of cheesecloth, rinsed with sterile deionised water and re-suspended in sterile deionised water. Two ml of the seed suspension containing approximately 150-400 seeds were spread evenly on two layers of sterile glass fiber filter paper disc ([…]) in Petri dishes (Ø9 cm). After wetting the discs with 3 ml sterile deionised water, petri dishes were sealed with parafilm. Seeds were incubated for 10 days at 20° C. in the dark for seed conditioning. The upper disc with conditioned seeds was briefly dried, transferred to a petri dish lined with a dry GFFP disc, and wetted with 6 ml of the appropriate test solution. The compounds of formula (I) were tested at concentrations of 0.001, 0.01, and 0.1 mg 1^−1. The strigolactone analogue GR24 (commercially available as a mixture of isomers) was included as positive control and 0.001% DMSO as negative control. All treatments were tested in five replicates. Seeds were re-incubated at 20° C. in the dark and examined for germination 10 days later. The radicles of germinated seeds were stained for 5 min with blue ink (MIGROS, Switzerland) in 5% acetic acid according to Long et al. (Seed Science Research (2008), 18, p. 125). After staining, seeds were scanned using a flatbed scanner with an optical resolution of 1200 dpi (PULSTEK, OpticPro ST28) or photographed using a camera stand mounted with a digital SLR camera (Canon EOS 5D). Germination of 100 seeds per replicate was evaluated on digital images. Seeds were considered germinated when the radicle protruded from the seed coat. SAS statistical software package version 9.1 was used for analysis of variance (GLM procedure) and multiple comparisons of treatment means (Sidak t-test) based on arcsine transformed percentage germination data.
# [1] = Table 7, seed lot IN153, race F
# [2] = Table 8, seed lot IN153, race F
# [3] = Table 5, seed lot IN146, race F
# [4] = Table 6, seed lot IN146, race F
molecule,measurement,setting,value
COc1ccc2c(c1)CC1C(=COC3C=C(C)C(=O)O3)C(=O)NC21 (stereo not drawn) [Compound A4],Germination % at concentration of 0.001 mg l^−1,[1],98.9 a %
same,Germination % at concentration of 0.01 mg l^−1,[1],95.8 ab %
same,Germination % at concentration of 0.1 mg l^−1,[1],99.0 a %
C=CCN1C(=O)C(=COC2C=C(C)C(=O)O2)C2Cc3ccccc3C21 (mixture of isomers) [A29*],Germination % at concentration of 0.001 mg l^−1,[2],90.3 abc %
same,Germination % at concentration of 0.01 mg l^−1,[2],94.5 abc %
same,Germination % at concentration of 0.1 mg l^−1,[2],94.0 abc %
CC1=CC(OC=C2C(=O)NC3c4cccc(Br)c4CC23)OC1=O (stereo not drawn) [Compound A2],Germination % at concentration of 0.001 mg l^−1,[3],76.9 abc %
same,Germination % at concentration of 0.01 mg l^−1,[3],82 ab %
same,Germination % at concentration of 0.1 mg l^−1,[3],83.2 ab %
CC1=CC(OC=C2C(=O)N(c3ccc(C#N)cn3)C3c4ccccc4CC23)OC1=O (mixture of isomers) [A16*],Germination % at concentration of 0.001 mg l^−1,[2],7.8 fg %
same,Germination % at concentration of 0.01 mg l^−1,[2],60.6 cde %
same,Germination % at concentration of 0.1 mg l^−1,[2],88.2 abc %
GR-24,Germination % at concentration of 0.001 mg l^−1,[3],21.2 de %
same,Germination % at concentration of 0.01 mg l^−1,[3],33.3 cd %
same,Germination % at concentration of 0.1 mg l^−1,[3],45.9 bcd %
same,Germination % at concentration of 0.001 mg l^−1,[4],17.5 d %
same,Germination % at concentration of 0.01 mg l^−1,[4],61.4 c %
same,Germination % at concentration of 0.1 mg l^−1,[4],86.6 ab %
same,Germination % at concentration of 0.001 mg l^−1,[1],89.5 ab %
same,Germination % at concentration of 0.01 mg l^−1,[1],97.2 a %
same,Germination % at concentration of 0.1 mg l^−1,[1],96.2 ab %
same,Germination % at concentration of 0.001 mg l^−1,[2],84.1 abcde %
same,Germination % at concentration of 0.01 mg l^−1,[2],94.1 abc %
same,Germination % at concentration of 0.1 mg l^−1,[2],97.0 a %
CC1=CC(OC=C2C(=O)N(C(=O)OC(C)(C)C)C3c4ccccc4C(F)C23)OC1=O (mixture of isomers) [A25*],Germination % at concentration of 0.001 mg l^−1,[1],1.2 c %
same,Germination % at concentration of 0.01 mg l^−1,[1],14.3 c %
same,Germination % at concentration of 0.1 mg l^−1,[1],86.3 ab %
"CC1=CC(O/C=C2/C(=O)N(Cc3ccc(F)cc3)C3c4ccccc4CC23)OC1=O (stereo not drawn) [A27*, (3E)-1-[(4-fluorophenyl)methyl]-3-[(4-methyl-5-oxo-2H-furan-2-yl)oxymethylene]-4,8b-dihydro-3aH-indeno[1,2-b]pyrrol-2-one]",Germination % at concentration of 0.001 mg l^−1,[2],7.7 fg %
same,Germination % at concentration of 0.01 mg l^−1,[2],63.3 abcde %
same,Germination % at concentration of 0.1 mg l^−1,[2],80.1 abcde %
CC1=CC(OC=C2C(=O)N(CC#N)C3c4ccccc4CC23)OC1=O (mixture of isomers) [A28*],Germination % at concentration of 0.001 mg l^−1,[2],42.4 ef %
same,Germination % at concentration of 0.01 mg l^−1,[2],89.2 abc %
same,Germination % at concentration of 0.1 mg l^−1,[2],96.3 ab %
CC(=O)N1C(=O)C(=COC2C=C(C)C(=O)O2)C2Cc3ccccc3C21 (stereo not drawn) [Compound A22],Germination % at concentration of 0.001 mg l^−1,[2],87.6 abc %
same,Germination % at concentration of 0.01 mg l^−1,[2],95.3 ab %
same,Germination % at concentration of 0.1 mg l^−1,[2],95.7 ab %
COc1ccc(N2C(=O)C(=COC3C=C(C)C(=O)O3)C3Cc4ccccc4C32)cc1 (stereo not drawn) [Compound A20],Germination % at concentration of 0.001 mg l^−1,[1],2.0 c %
same,Germination % at concentration of 0.01 mg l^−1,[1],14.4 c %
same,Germination % at concentration of 0.1 mg l^−1,[1],89.3 ab %
CCOC(=O)N1C(=O)C(=COC2C=C(C)C(=O)O2)C2Cc3ccccc3C21 (stereo not drawn) [Compound A21],Germination % at concentration of 0.001 mg l^−1,[2],83.7 abcde %
same,Germination % at concentration of 0.01 mg l^−1,[2],93.4 abc %
same,Germination % at concentration of 0.1 mg l^−1,[2],96.7 a %
CC1=CC(OC=C2C(=O)NC3c4ccc(Cl)cc4CC23)OC1=O (stereo not drawn) [Compound A10],Germination % at concentration of 0.001 mg l^−1,"lot IN146, raceF, Table 4",81.3 abc %
same,Germination % at concentration of 0.01 mg l^−1,"lot IN146, raceF, Table 4",84.0 ab %
same,Germination % at concentration of 0.1 mg l^−1,"lot IN146, raceF, Table 4",85.1 ab %
CC1=CC(OC=C2C(=O)NC3c4c(C#N)cccc4CC23)OC1=O (mixture of isomers) [A12*],Germination % at concentration of 0.001 mg l^−1,"lot IN146, raceF, Table 4",0 e %
same,Germination % at concentration of 0.01 mg l^−1,"lot IN146, raceF, Table 4",4.2 e %
same,Germination % at concentration of 0.1 mg l^−1,"lot IN146, raceF, Table 4",32 bcde %
CC1=CC(OC=C2C(=O)NC3c4c(Br)cccc4CC23)OC1=O (stereo not drawn) [Compound A6],Germination % at concentration of 0.001 mg l^−1,"lot IN146, raceF, Table 4",22.3 cde %
same,Germination % at concentration of 0.01 mg l^−1,"lot IN146, raceF, Table 4",59.2 abcd %
same,Germination % at concentration of 0.1 mg l^−1,"lot IN146, raceF, Table 4",27.8 bcde %
CCCc1cccc2c1CC1C(=COC3C=C(C)C(=O)O3)C(=O)NC21 (stereo not drawn) [Compound A14],Germination % at concentration of 0.001 mg l^−1,[3],85.3 ab %
same,Germination % at concentration of 0.01 mg l^−1,[3],91.5 a %
same,Germination % at concentration of 0.1 mg l^−1,[3],86.2 ab %
CC1=CC(OC=C2C(=O)N(c3ccc(Cl)cc3)C3c4ccccc4CC23)OC1=O (stereo not drawn) [Compound A18],Germination % at concentration of 0.001 mg l^−1,[1],89.8 ab %
same,Germination % at concentration of 0.01 mg l^−1,[1],99.1 a %
same,Germination % at concentration of 0.1 mg l^−1,[1],99.1 a %
CC1=CC(OC=C2C(=O)N(c3ccccc3)C3c4ccccc4CC23)OC1=O (stereo not drawn) [Compound A17],Germination % at concentration of 0.001 mg l^−1,[1],99.2 a %
same,Germination % at concentration of 0.01 mg l^−1,[1],98.9 a %
same,Germination % at concentration of 0.1 mg l^−1,[1],99.4 a %
CC1=CC(OC=C2C(=O)NC3c4ccc(F)cc4CC23)OC1=O (stereo not drawn) [Compound A9],Germination % at concentration of 0.001 mg l^−1,[4],90.2 ab %
same,Germination % at concentration of 0.01 mg l^−1,[4],85.2 abc %
same,Germination % at concentration of 0.1 mg l^−1,[4],71.5 bc %
CC1=CC(OC=C2C(=O)N(c3ccc(C(F)(F)F)cc3)C3c4ccccc4CC23)OC1=O (mixture of isomers) [A19*],Germination % at concentration of 0.001 mg l^−1,[2],71.5 abcde %
same,Germination % at concentration of 0.01 mg l^−1,[2],92.2 abc %
same,Germination % at concentration of 0.1 mg l^−1,[2],96.4 a %
CC1=CC(OC=C2C(=O)N(C(=O)OC(C)(C)C)C3c4ccccc4CC23)OC1=O (mixture of isomers) [A15*],Germination % at concentration of 0.001 mg l^−1,[3],0 e %
same,Germination % at concentration of 0.01 mg l^−1,[3],12.4 de %
same,Germination % at concentration of 0.1 mg l^−1,[3],25 d %
CC(=O)OC1c2ccccc2C2C1C(=COC1C=C(C)C(=O)O1)C(=O)N2C(=O)OC(C)(C)C (mixture of isomers) [A24*],Germination % at concentration of 0.001 mg l^−1,[2],44.8 def %
same,Germination % at concentration of 0.01 mg l^−1,[2],86.4 abcd %
same,Germination % at concentration of 0.1 mg l^−1,[2],96.8 a %
CC1=CC(OC=C2C(=O)NC3c4cccc(C#N)c4CC23)OC1=O (stereo not drawn) [Compound A11],Germination % at concentration of 0.001 mg l^−1,[3],86.3 ab %
same,Germination % at concentration of 0.01 mg l^−1,[3],88.4 ab %
same,Germination % at concentration of 0.1 mg l^−1,[3],85.5 ab %
CCCc1cccc2c1C1NC(=O)C(=COC3C=C(C)C(=O)O3)C1C2 (stereo not drawn) [Compound A13],Germination % at concentration of 0.001 mg l^−1,"lot IN146, raceF, Table 4",14.3 de %
same,Germination % at concentration of 0.01 mg l^−1,"lot IN146, raceF, Table 4",64.5 abcd %
same,Germination % at concentration of 0.1 mg l^−1,"lot IN146, raceF, Table 4",21.5 cde %
CC1=CC(OC=C2C(=O)NC3c4cccc(C)c4CC23)OC1=O (stereo not drawn) [Compound A5],Germination % at concentration of 0.001 mg l^−1,"lot IN146, raceF, Table 4",74.5 abc %
same,Germination % at concentration of 0.01 mg l^−1,"lot IN146, raceF, Table 4",90 a %
same,Germination % at concentration of 0.1 mg l^−1,"lot IN146, raceF, Table 4",85.5 ab %
